Here are results for 26 compounds from ChEMBL document CHEMBL1134995, “Enhancement of pharmacokinetic properties and in vivo efficacy of benzylidene ketal M(2) muscarinic receptor antagonists via benzamide modification” (Bioorg Med Chem Lett, 2002).

One may read the Ki as a dissociation constant, usually derived from enzyme kinetics or from competition with a known ligand. A word on the bioavailability: it is the share of a dose that reaches the circulation, judged against a reference dose that is usually intravenous. Low values mean little systemic uptake, high ones much systemic uptake. For orientation: AUC means the area under the concentration-time curve, a measure of exposure. A lower AUC goes with less exposure.

The target of series [1] is T1, Muscarinic acetylcholine receptor M2 (Rattus norvegicus, UniProt P10980).
T1 sequence (P10980 whole entry): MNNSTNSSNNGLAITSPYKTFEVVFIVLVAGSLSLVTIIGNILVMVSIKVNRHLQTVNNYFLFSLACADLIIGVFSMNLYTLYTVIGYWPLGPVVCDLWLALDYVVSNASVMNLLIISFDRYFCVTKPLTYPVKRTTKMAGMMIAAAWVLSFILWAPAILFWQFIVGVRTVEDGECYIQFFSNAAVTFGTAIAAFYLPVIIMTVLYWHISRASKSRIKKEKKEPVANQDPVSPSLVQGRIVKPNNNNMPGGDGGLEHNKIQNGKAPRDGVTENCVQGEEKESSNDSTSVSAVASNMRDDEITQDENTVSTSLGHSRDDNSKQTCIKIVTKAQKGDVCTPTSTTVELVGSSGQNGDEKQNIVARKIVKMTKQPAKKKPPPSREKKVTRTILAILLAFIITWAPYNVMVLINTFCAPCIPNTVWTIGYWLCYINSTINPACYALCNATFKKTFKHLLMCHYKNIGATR
The series is described as follows: Binding affinity towards Muscarinic acetylcholine receptor M2.

Series [2] addresses Muscarinic receptor M1 and M2 (Rattus norvegicus) (UniProt P08482+P10980). The experiment in a line: Ratio of binding affinity of muscarinic M1 receptor to muscarinic M2 receptor. The series is classed as protein assay.
Series [3] addresses Muscarinic receptor M2 and M3 (Rattus norvegicus) (UniProt P08483+P10980). The series is described as follows: Ratio of binding affinity for muscarinic M3 receptor to muscarinic M2 receptor. The class given is protein assay.
Series [4] is filed under the species Rattus norvegicus. The series is described as follows: Efficacy was tested in a rat microdialysis assay where ACh release levels were measured. The series is classed as functional.
Series [5] in a line: Oral bioavailability in rats was determined; High. The series is classed as ADME, organism-based. To be noted: rat, in vivo.
Series [6] is described as follows: Area under curve was determined.
In series [7] the test system is Rattus norvegicus. The experiment in a line: Effect of compound on heart rate in rats at 1 mg/kg was determined; Not effected. The series is classed as functional, organism-based. More on the design: dose 1 mg/kg.
Series [8] deals with Rattus norvegicus. The experiment in a line: Compound was tested for activity in rat passive avoidance response (PAR) experiment, pretreatment time 1 hr with oral dose ranging from 0.001 to 0.1 mg/kg; Active. The series is classed as functional, organism-based.
Series [9] is described as follows: Oral bioavailability in cynomolgus monkeys was determined; Acceptable. The series is classed as ADME, organism-based, Macaca fascicularis. The conditions noted are these: cynomolgus monkey, in vivo.
Series [10] deals with Rattus norvegicus. The series is described as follows: Effect of compound on heart rate in rats at 3 and 10 mg/kg was determined; Increase. More on the design: dose 10 mg/kg. The class given is functional, organism-based.

Calls of active or inactive are those of the source. The rule behind the calls is not given here.

Muscarinic receptor M2 and M3 (Rattus norvegicus), sequence (P08483 whole entry, looked up, one chain of several): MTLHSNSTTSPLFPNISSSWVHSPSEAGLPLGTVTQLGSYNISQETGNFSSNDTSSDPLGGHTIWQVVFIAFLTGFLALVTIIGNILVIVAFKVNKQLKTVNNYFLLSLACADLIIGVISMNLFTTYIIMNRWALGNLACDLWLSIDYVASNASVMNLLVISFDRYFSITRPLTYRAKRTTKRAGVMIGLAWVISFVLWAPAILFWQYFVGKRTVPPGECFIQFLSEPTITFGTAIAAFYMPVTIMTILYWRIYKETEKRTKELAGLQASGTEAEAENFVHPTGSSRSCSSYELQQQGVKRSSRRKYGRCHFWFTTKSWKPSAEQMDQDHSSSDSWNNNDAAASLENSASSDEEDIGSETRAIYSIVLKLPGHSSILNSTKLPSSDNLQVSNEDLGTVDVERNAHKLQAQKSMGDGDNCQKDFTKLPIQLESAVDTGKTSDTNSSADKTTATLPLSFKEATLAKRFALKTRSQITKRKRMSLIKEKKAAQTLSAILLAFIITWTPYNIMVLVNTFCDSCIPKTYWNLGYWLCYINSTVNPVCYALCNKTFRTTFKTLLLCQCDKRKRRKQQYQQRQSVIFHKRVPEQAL
Muscarinic receptor M1 and M2 (Rattus norvegicus), sequence (P08482 whole entry, looked up, one chain of several): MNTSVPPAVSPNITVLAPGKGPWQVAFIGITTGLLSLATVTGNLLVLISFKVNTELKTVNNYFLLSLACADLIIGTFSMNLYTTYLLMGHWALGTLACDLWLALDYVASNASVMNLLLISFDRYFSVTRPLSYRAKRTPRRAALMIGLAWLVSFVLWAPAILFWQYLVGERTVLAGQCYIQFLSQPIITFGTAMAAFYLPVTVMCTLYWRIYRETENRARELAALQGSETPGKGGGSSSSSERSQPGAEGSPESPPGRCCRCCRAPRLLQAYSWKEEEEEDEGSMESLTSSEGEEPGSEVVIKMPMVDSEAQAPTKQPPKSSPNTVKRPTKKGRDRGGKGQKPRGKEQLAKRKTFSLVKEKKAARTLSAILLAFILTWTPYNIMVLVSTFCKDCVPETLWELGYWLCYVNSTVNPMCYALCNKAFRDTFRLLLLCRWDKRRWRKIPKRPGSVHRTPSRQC

For the compound `COc1ccc(S(=O)(=O)c2ccc(C3(C4CCN(C5CCN(C(=O)c6ccccc6Cl)CC5)CC4)OCCO3)cc2)cc1`, the Ki in series [1] came out at 1.6 nM.
Turning to `COc1ccc(S(=O)(=O)c2ccc(C3(C4CCN(C5CCN(C(=O)c6cccc(C)c6C)CC5)CC4)OCCO3)cc2)cc1`, the Ratio worked out at 66 in [2] and 40 in series [3]. Moreover, the affinity in series [1], expressed as Ki, was 1.4 nM.
In [1], `COc1ccc(S(=O)(=O)c2ccc(C3(C4CCN(C5CCN(C(=O)c6ccccc6C)CC5)CC4)OCCO3)cc2)cc1` gave a Ki of 0.54 nM.
As for `COc1ccc(S(=O)(=O)c2ccc(C3(C4CCN(C5CCN(C(=O)c6cccc(Cl)c6C)CC5)CC4)OCCO3)cc2)cc1`, the Ratio in series [2] amounted to 42. Besides, the Ki in series [1] turned out to be 0.72 nM.
As to `Cc1ccccc1C(=O)N1CCC(N2CCC(C3(c4ccc(S(=O)(=O)c5ccc6c(c5)OCO6)cc4)OCCO3)CC2)CC1`, the Ratio came out at 28 in [2] and 8 in series [3]. Further, the Ki in [1] worked out at 0.065 nM.
`COc1ccc([S+]([O-])c2ccc(C3(C4CCN(C5CCN(C(=O)c6ccccc6C)CC5)CC4)OCCO3)cc2)cc1` (configuration not stated): the values for the Ratio in series [2] and in [3] were 146 and 35, respectively. In addition, in [1], the affinity corresponds to a Ki of 2.5 nM.
In turn, `COc1ccc(S(=O)(=O)c2ccc(C3(C4CCN(C5CCN(C(=O)c6cccc(N)c6)CC5)CC4)OCCO3)cc2)cc1` displayed a Ki in [1] of 0.78 nM.
The compound `COc1ccc(S(=O)(=O)c2ccc(C3(C4CCN(C5CCN(C(=O)c6cccc(Cl)c6N)CC5)CC4)OCCO3)cc2)cc1` came in with a Ki in series [1] of 1.1 nM.
Compound `COc1ccc(S(=O)(=O)c2ccc(C3(C4CCN(C5CCN(C(=O)c6ccccc6OC)CC5)CC4)OCCO3)cc2)cc1` returned a Ki in series [1] of 1.2 nM.
In turn, `COc1ccc(S(=O)(=O)c2ccc(C3(C4CCN(C5CCN(C(=O)c6ccccc6C(F)(F)F)CC5)CC4)OCCO3)cc2)cc1` showed a Ki in series [1] of 1 nM.
Regarding `COc1ccc(S(=O)(=O)c2ccc(C3(C4CCN(C5CCN(C(=O)c6cccc(N)c6C)CC5)CC4)OCCO3)cc2)cc1`, the Ki in series [1] amounted to 0.4 nM.
The compound `COc1ccc(S(=O)(=O)c2ccc(C3(C4CCN(C5CCN(C(=O)c6ccc(F)c7ccccc67)CC5)CC4)OCCO3)cc2)cc1` yielded an Acetylcholine release in the series listed under Rattus norvegicus [4] of 180%.
Regarding `COc1ccc(S(=O)(=O)c2ccc(C3(C4CCN(C5CCN(C(=O)c6ccccc6Br)CC5)CC4)OCCO3)cc2)cc1`, affinity in series [1] was put at a Ki of 1.8 nM.
For the compound `COc1ccc(S(=O)(=O)c2ccc(C3(C4CCN(C5CCN(C(=O)c6cc(N)ccc6Cl)CC5)CC4)OCCO3)cc2)cc1`, affinity in series [1] was put at a Ki of 0.53 nM.
On to `COc1ccc(S(=O)(=O)c2ccc(C3(C4CCN(C5CCN(C(=O)c6ccccc6C)CC5)CC4)SCCS3)cc2)cc1`, for which the Ratio in series [2] was 89; in series [3], 15. This compound also had a Ki in series [1] of 0.86 nM.
`COc1ccc(S(=O)(=O)c2ccc(C3(C4CCN(C5CCN(C(=O)c6ccc(F)cc6N)CC5)CC4)OCCO3)cc2)cc1` had a Ki in [1] of 0.44 nM.
Turning to `COc1ccc(S(=O)(=O)c2ccc(C3(C4CCN(C5CCN(C(=O)c6ccccc6F)CC5)CC4)OCCO3)cc2)cc1`, the Ratio in [2] came out at 49; in series [3], 8. In [1], this compound gave a Ki of 4.8 nM.
Regarding `COc1ccc([S+]([O-])c2ccc(C3(C4CCN(C5CCN(C(=O)c6ccccc6C)CC5)CC4)O[C@H](C)[C@@H](C)O3)cc2)cc1` (some centres not stated), the Ratio in [2] was determined as 14. Moreover, in series [1], the affinity corresponds to a Ki of 51 nM.
`COc1ccc(S(=O)(=O)c2ccc(C3(C4CCN(C5CCN(C(=O)c6c(Cl)cccc6Cl)CC5)CC4)OCCO3)cc2)cc1`: the Ki in series [1] came out at 2.3 nM.
On to `COc1ccc(S(=O)(=O)c2ccc(C3(C4CCN(C5CCN(C(=O)c6ccccc6C)CC5)CC4)O[C@H](C)[C@@H](C)O3)cc2)cc1`, for which the Ratio in series [2] amounted to 32. This compound also had a Ki in series [1] of 18 nM.
As to `COc1ccc(S(=O)(=O)c2ccc(C3(C4CCN(C5CCN(C(=O)c6cccc(F)c6N)CC5)CC4)OCCO3)cc2)cc1`, the Ki in [1] was determined as 0.51 nM.
In turn, `COc1ccc(S(=O)(=O)c2ccc(C3(C4CCN(C5CCN(C(=O)c6cc(F)ccc6N)CC5)CC4)OCCO3)cc2)cc1` yielded a Ki in series [1] of 0.68 nM.
On to `CNc1ccccc1C(=O)N1CCC(N2CCC(C3(c4ccc(S(=O)(=O)c5ccc(OC)cc5)cc4)OCCO3)CC2)CC1`, for which, in series [1], the Ki was found to be 0.9 nM.
Compound `COc1ccc(S(=O)(=O)c2ccc(C3(C4CCN(C5CCN(C(=O)c6cccc(N)c6Cl)CC5)CC4)OCCO3)cc2)cc1` showed an Acetylcholine release in the series listed under Rattus norvegicus [4] of 135%. For the same compound, affinity in series [1] was put at a Ki of 0.53 nM.
Consider `COc1ccc(S(=O)(=O)c2ccc(C3(C4CCN(C5CCN(C(=O)c6cccc(C)c6N)CC5)CC4)OCCO3)cc2)cc1`, for which the bioavailability in series [5] was determined as 80%; in [9], 15%. In addition, in the series listed under Rattus norvegicus [4], the Acetylcholine release worked out at 194%. In addition, the Ki in [1] stood at 0.39 nM. Moreover, the AUC in series [6] stood at 1570 ng·h/mL. In the series on Rattus norvegicus [7], the Heart rate entry was “inactive”. In addition, in the series on Rattus norvegicus [8], the result was Active. Moreover, in the series with Rattus norvegicus [10], the Heart rate entry is on record as “Increased heart rate”.
In [1], `COc1ccc(S(=O)(=O)c2ccc(C3(C4CCN(C5CCN(C(=O)c6ccccc6N)CC5)CC4)OCCO3)cc2)cc1` registered a Ki of 1.5 nM.
